Results reported in the supplement of paper PMC7244745.
± gives the uncertainty stated by the source.

Legend:
[1] = test system: Klebsiella pneumoniae ATCC 13882; test: rate of pH (A557-A630) increase, Gompertz fit (10^-4 s-1); higher = faster ureolysis; extreme values may be limits of the assay
Experimental: (§1)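 Klebsiella pneumoniae ATCC 13882 (start OD600 0.05) grown in M9U medium with 40 mM urea and phenol red plus inhibitor, in triplicate in 96-well plates. A557 and OD630 were read every 15 min for 24 h. Ureolysis was followed as the pH-related A557-A630: onset time, Gompertz-fit rate and final value. Growth was followed as OD630.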

[2] = test system: Klebsiella pneumoniae ATCC 13882; test: final OD630 (growth) after 24 h; higher = more bacterial growth; extreme values may be limits of the assay
Experimental: as §1

[3] = test system: Klebsiella pneumoniae ATCC 13882; test: onset of ureolytic pH increase; higher = more delayed ureolysis (inhibition)
Experimental: as §1

[4] = test system: Klebsiella pneumoniae ATCC 13882; test: final pH-related absorbance (A557-A630) after 24 h (absorbance units); higher = more ureolysis; extreme values may be limits of the assay
Experimental: as §1

O=C(O)CCC(CC(=O)O)C(=O)O (stereo not given) [1,2,4-butanetricarboxylic acid]
rate of pH ([1]; 0.1 mM): 1.526 ± 0.014
rate of pH ([1]; 1 mM): 1.58 ± 0.019
rate of pH ([1]; 10 mM): 0
final OD630 ([2]; 0.1 mM): 0.424 ± 0.0051
final OD630 ([2]; 1 mM): 0.433 ± 0.0031
final OD630 ([2]; 10 mM): 0
onset of ureolytic pH increase ([3]; 0.1 mM): 685.49 ± 0.14 min
onset of ureolytic pH increase ([3]; 1 mM): 678.3 ± 3.3 min
onset of ureolytic pH increase ([3]; 10 mM): > 900 min
final pH-related absorbance ([4]; 0.1 mM): 0.33 ± 0.0058
final pH-related absorbance ([4]; 1 mM): 0.277 ± 0.0026
final pH-related absorbance ([4]; 10 mM): 0

NC(=S)Nc1cccc(C(=O)O)c1 [1-(3-Carboxyphenyl)-2-thiourea]
rate of pH ([1]; 0.00075 mM): 1.92 ± 0.078
rate of pH ([1]; 0.0075 mM): 2.06 ± 0.18
rate of pH ([1]; 0.075 mM): 2.15 ± 0.048
final OD630 ([2]; 0.00075 mM): 0.489 ± 0.005
final OD630 ([2]; 0.0075 mM): 0.51 ± 0.017
final OD630 ([2]; 0.075 mM): 0.49 ± 0.01
onset of ureolytic pH increase ([3]; 0.00075 mM): 436 ± 6.5 min
onset of ureolytic pH increase ([3]; 0.0075 mM): 423 ± 18 min
onset of ureolytic pH increase ([3]; 0.075 mM): 435 ± 6.4 min
final pH-related absorbance ([4]; 0.00075 mM): 0.246 ± 0.012
final pH-related absorbance ([4]; 0.0075 mM): 0.27 ± 0.023
final pH-related absorbance ([4]; 0.075 mM): 0.24 ± 0.011

O[C@@H](CS)[C@@H](O)CS [1.4-dithiothreitol]
rate of pH ([1]; 0.1 mM): 1.81 ± 0.074
rate of pH ([1]; 1 mM): 0.11 ± 0.0047
rate of pH ([1]; 10 mM): 0.0642 ± 0.0044
final OD630 ([2]; 0.1 mM): 0.432 ± 0.079
final OD630 ([2]; 1 mM): 0.306 ± 0.0084
final OD630 ([2]; 10 mM): 0.264 ± 0.0063
onset of ureolytic pH increase ([3]; 0.1 mM): 610 ± 19 min
onset of ureolytic pH increase ([3]; 1 mM): 980 ± 19 min
onset of ureolytic pH increase ([3]; 10 mM): 1010 ± 7.1 min
final pH-related absorbance ([4]; 0.1 mM): 0.381 ± 0.013
final pH-related absorbance ([4]; 1 mM): 0.274 ± 0.02
final pH-related absorbance ([4]; 10 mM): 0.137 ± 0.013

O=C1CC(=O)NC(=S)N1 [2-Thiobarbituric acid]
rate of pH ([1]; 0.012 mM): 2.14 ± 0.06
rate of pH ([1]; 0.118 mM): 2.04 ± 0.024
rate of pH ([1]; 1.18 mM): 0
final OD630 ([2]; 0.012 mM): 0.449 ± 0.007
final OD630 ([2]; 0.118 mM): 0.437 ± 0.008
final OD630 ([2]; 1.18 mM): 0.303 ± 0.028
onset of ureolytic pH increase ([3]; 0.012 mM): 556.8 ± 1.3 min
onset of ureolytic pH increase ([3]; 0.118 mM): 581 ± 24 min
onset of ureolytic pH increase ([3]; 1.18 mM): > 900 min
final pH-related absorbance ([4]; 0.012 mM): 0.201 ± 0.008
final pH-related absorbance ([4]; 0.118 mM): 0.194 ± 0.006
final pH-related absorbance ([4]; 1.18 mM): 0

O=[N+]([O-])C(Br)(CO)CO [2-bromo-2-nitropropane-1.3-diol]
rate of pH ([1]; 0.1 mM): 0
rate of pH ([1]; 1 mM): 0
rate of pH ([1]; 10 mM): 0
final OD630 ([2]; 0.1 mM): 0
final OD630 ([2]; 1 mM): 0
final OD630 ([2]; 10 mM): 0
onset of ureolytic pH increase ([3]; 0.1 mM): > 1500 min
onset of ureolytic pH increase ([3]; 1 mM): > 1500 min
onset of ureolytic pH increase ([3]; 10 mM): > 1500 min
final pH-related absorbance ([4]; 0.1 mM): 0
final pH-related absorbance ([4]; 1 mM): 0
final pH-related absorbance ([4]; 10 mM): 0

OCCS [2-mercaptoethanol]
rate of pH ([1]; 0.1 mM): 1.72 ± 0.061
rate of pH ([1]; 1 mM): 0
rate of pH ([1]; 10 mM): 0
final OD630 ([2]; 0.1 mM): 0.416 ± 0.0027
final OD630 ([2]; 1 mM): 0.208 ± 0.0036
final OD630 ([2]; 10 mM): 0.155 ± 0.0041
onset of ureolytic pH increase ([3]; 0.1 mM): 602 ± 7.5 min
onset of ureolytic pH increase ([3]; 1 mM): > 1500 min
onset of ureolytic pH increase ([3]; 10 mM): > 1500 min
final pH-related absorbance ([4]; 0.1 mM): 0.19 ± 0.0096
final pH-related absorbance ([4]; 1 mM): 0
final pH-related absorbance ([4]; 10 mM): 0

CC1=CC(=O)C(C)=CC1=O [2.5-dimethyl-1.4-benzoquinone]
rate of pH ([1]; 0.011 mM): 1.46 ± 0.047
rate of pH ([1]; 0.107 mM): 1.97
rate of pH ([1]; 1.07 mM): 0.535 ± 0.0079
final OD630 ([2]; 0.011 mM): 0.33 ± 0.011
final OD630 ([2]; 0.107 mM): 0.336
final OD630 ([2]; 1.07 mM): 0
onset of ureolytic pH increase ([3]; 0.011 mM): 594.3 ± 2.4 min
onset of ureolytic pH increase ([3]; 0.107 mM): 945 min
onset of ureolytic pH increase ([3]; 1.07 mM): 0 min
final pH-related absorbance ([4]; 0.011 mM): 0.152 ± 0.0068
final pH-related absorbance ([4]; 0.107 mM): 0.116
final pH-related absorbance ([4]; 1.07 mM): 0.475 ± 0.011

O=c1oc2ccccc2c(O)c1Cc1c(O)c2ccccc2oc1=O [3.3'-methylene-bis-(4-hydroxycoumarin)]
rate of pH ([1]; 0.0035 mM): 1.45 ± 0.019
rate of pH ([1]; 0.035 mM): 1.44 ± 0.039
rate of pH ([1]; 0.35 mM): 1.4
final OD630 ([2]; 0.0035 mM): 0.424 ± 0.0021
final OD630 ([2]; 0.035 mM): 0.409 ± 0.012
final OD630 ([2]; 0.35 mM): 0.403 ± 0.0058
onset of ureolytic pH increase ([3]; 0.0035 mM): 563 ± 1.1 min
onset of ureolytic pH increase ([3]; 0.035 mM): 592 ± 30 min
onset of ureolytic pH increase ([3]; 0.35 mM): 614 ± 8.9 min
final pH-related absorbance ([4]; 0.0035 mM): 0.161 ± 0.0024
final pH-related absorbance ([4]; 0.035 mM): 0.158 ± 0.0007
final pH-related absorbance ([4]; 0.35 mM): 0.16 ± 0.0029

OB(O)c1ccc(Br)cc1 [4-bromophenylboronic acid]
rate of pH ([1]; 0.0017 mM): 0.0566 ± 0.0019
rate of pH ([1]; 0.017 mM): 0.0294 ± 0.0052
rate of pH ([1]; 0.173 mM): 0
final OD630 ([2]; 0.0017 mM): 0.451 ± 0.0066
final OD630 ([2]; 0.017 mM): 0
final OD630 ([2]; 0.173 mM): 0
onset of ureolytic pH increase ([3]; 0.0017 mM): 745 ± 19 min
onset of ureolytic pH increase ([3]; 0.017 mM): 0 min
onset of ureolytic pH increase ([3]; 0.173 mM): > 1500 min
final pH-related absorbance ([4]; 0.0017 mM): 0.12 ± 0.0018
final pH-related absorbance ([4]; 0.017 mM): 0.269 ± 0.042
final pH-related absorbance ([4]; 0.173 mM): 0

CC(=O)NO [Acetohydroxamic acid]
rate of pH ([1]; 0.1 mM): 1.12 ± 0.047
rate of pH ([1]; 1 mM): 1.31 ± 0.054
rate of pH ([1]; 10 mM): 0
final OD630 ([2]; 0.1 mM): 0.479 ± 0.016
final OD630 ([2]; 1 mM): 0.356 ± 0.01
final OD630 ([2]; 10 mM): 0.258 ± 0.004
onset of ureolytic pH increase ([3]; 0.1 mM): 507 ± 13 min
onset of ureolytic pH increase ([3]; 1 mM): 725 ± 9.2 min
onset of ureolytic pH increase ([3]; 10 mM): > 900 min
final pH-related absorbance ([4]; 0.1 mM): 0.437 ± 0.044
final pH-related absorbance ([4]; 1 mM): 0.057 ± 0.006
final pH-related absorbance ([4]; 10 mM): 0
